Test results reported in BigSolDB 2.1.

CCCCN(CCCC)CC(O)c1cc(Cl)cc2c1-c1ccc(Cl)cc1/C2=C/c1ccc(Cl)cc1 (stereo not given)
solubility (mole fraction)
Details | 278.15 K | 283.15 K | 288.15 K | 293.15 K | 298.15 K | 303.15 K | 308.15 K | 313.15 K | 318.15 K | 323.15 K
in ethanol | 5.32e-05 | 7.11e-05 | 9.63e-05 | 0.000127 | 0.000158 | 0.000213 | 0.000265 | 0.000323 | 0.000401 | 0.000497
in ethyl acetate | 0.00178 | 0.00233 | 0.00315 | 0.00409 | 0.00538 | 0.0069 | 0.009 | 0.0116 | 0.0151 | 0.0201
in methanol | 1.34e-05 | 1.7e-05 | 2.27e-05 | 3.03e-05 | 3.81e-05 | 4.95e-05 | 6.28e-05 | 8.17e-05 | 0.000105 | 0.000136
in methyl acetate | 0.000656 | 0.000903 | 0.00136 | 0.00186 | 0.00262 | 0.00364 | 0.00495 | 0.00669 | 0.00913 | 0.0126
in n-butanol | 0.000137 | 0.000182 | 0.000281 | 0.00038 | 0.000493 | 0.00065 | 0.000851 | 0.00115 | 0.00147 | 0.00187
in n-butyl acetate | 0.00423 | 0.00531 | 0.00672 | 0.00864 | 0.0108 | 0.0137 | 0.0175 | 0.0223 | 0.0285 | 0.0359
in n-heptanol | 0.000337 | 0.000437 | 0.000586 | 0.000781 | 0.0011 | 0.00149 | 0.00193 | 0.00245 | 0.00339 | 0.0045
in n-hexanol | 0.00021 | 0.000315 | 0.000477 | 0.000604 | 0.000886 | 0.00119 | 0.00171 | 0.00214 | 0.00289 | 0.00387
in n-octanol | 0.000352 | 0.000474 | 0.00073 | 0.000945 | 0.00125 | 0.00172 | 0.00221 | 0.00298 | 0.00385 | 0.00516
in n-pentanol | 0.000215 | 0.00028 | 0.000423 | 0.000555 | 0.000745 | 0.000968 | 0.0013 | 0.0017 | 0.0022 | 0.00288
in n-pentyl acetate | 0.00474 | 0.00654 | 0.00846 | 0.011 | 0.0137 | 0.0168 | 0.0211 | 0.0252 | 0.0326 | 0.0406
in n-propanol | 8.62e-05 | 0.000107 | 0.000145 | 0.00021 | 0.000279 | 0.000388 | 0.000502 | 0.000696 | 0.000967 | 0.00131
in n-propyl acetate | 0.00281 | 0.00365 | 0.00485 | 0.00653 | 0.00838 | 0.0109 | 0.0139 | 0.018 | 0.0231 | 0.0304
